Experimental data from paper PMC2993181 (PLoS ONE, 2010).

System: JEKO-1
Experiment: cells
Design: species or system cell viability; MTT cell viability assay, absorbance 570/650 nm; IC50 by linear interpolation of concentration-response curve
Settings: Homo sapiens, JeKo-1, 48 h; read-out: IC 50 values
Experimental: Supplementary file pone.0015479.s006.doc: Table S2 A list of compounds tested in this study. JEKO-1 cells were treated with each of the listed compounds at concentrations ranging from 1.25 µM to […]. Cell viability was determined by the MTT assay and used to obtain concentration-response curve. IC50 was extracted by linear interpolation. Click here for additional data file. HeLa and 293T cells from ATCC were maintained according to the standard procedures. JEKO-1 cells were kept in RPMI, 10% FCS as previously described. NOXA and control stable knock-down JEKO-1 cells were described previously. PBMC from normal volunteers were obtained from the Department of Transfusion Medicine, NIH and PBMC from CLL patients were obtained under NIH protocol 97-C-0178 with informed consent. Transfection was done with lipofectamine 2000 (Invitrogen) for 293T accordingly to manufacture's instruction. Pulse chase and denaturing immunoprecipitation were carried out as described previously, [48]. Subcellular fractionation experiments were carried out as previously described. Briefly, HeLa cells were harvested and washed with phosphate-buffered saline. Cells were then treated on ice with the buffer PB (25 mM Hepes, pH 7.2, 115 mM potassium acetate, 5 mM sodium acetate, 2.5 mM magnesium acetate, 0.5 mM EGTA, and a protease inhibitor cocktail) that also contain 0.028% digitonin. Cells were centrifuged at 20,000×g for 10 min. The cytosolic supernatant fraction was removed and the nucleus and membrane pellet fraction was washed twice with the PB buffer. The pellet fraction was finally resuspended in the PB buffer. The fluorescence intensity in these fractions was measured by the Victor 3 plate reader using the Ex482 and Em523 filter set. […] After 4 h incubation, the sample absorbance at 570 nm and […] were measured using a Victor 3 plate reader (Perkin Elmer, Waltham, MA) and ratio of drug-treated samples vs. the untreated control was used to determine cell viability. […] Fluorescence labeled secondary antibodies (Invitrogen, Carlsbad, CA) were used for detection. […]

Row | SMILES | IC50
1 | O=C(CCCC[C@@H]1SC[C@@H]2NC(=O)N[C@@H]21)N/N=C/C=C/c1ccc([N+](=O)[O-])o1 [CBU-032] | 25 µM
2 | CN(C)c1ccc(/C=C/C=N/NC(=O)CN2C(=O)N(c3ccc(Cl)cc3)C(N(O)C(=O)Nc3ccc(Cl)cc3)C2(C)C)cc1 (stereo not drawn) [CBU-059] | > 40 µM
3 | CC1(C)C(N(O)C(=O)Nc2ccc(Cl)cc2)N(c2ccc(Cl)cc2)C(=O)N1CC(=O)N/N=C/C=C/c1ccc([N+](=O)[O-])o1 (stereo not drawn) [EerI, Eeyarestatin I] | 3.5 µM
